From patent publication US20220362174A1, “Use of R-enantiomer Beta2-agonists for prevent and treatment of pulmonary inflammation and inflammatory remodeling for reduced adverse effects” (priority 2019, published 2022)
Entries after “also recorded” stand apart in the source; their conditions may differ.

Assays:
[1] = system: macrophages from the peritoneal fluid; experiment: LPS-induced proliferation and polarization of macrophages from the peritoneal fluid (sepsis); assay type: in vivo; settings: in comparison of sepsis condition
Excerpt: Macrophage activation and proliferation was considered to be the key step of initiation and development of sepsis. In one embodiment, LPS (PAMPs from bacteria) induced a proliferation and polarization of macrophages from the peritoneal fluid. […] These inhibitory effects can be blocked by using specific β2-recepter blocker.

[2] = system: LPS-induced RAW264.7 cells; experiment: Intracellular ROS (DCFH-DA); assay type: cell-based; settings: LPS-induced cells
Protocol: (§1) Macrophages were treated without or with (R)/(S)-salbutamol for 1 h prior to LPS stimulation and subsequently incubated for 12 h. […] The fluorescence of the oxidized product (2′,7′-dichlorofluorescein, DCF) was assessed using an LSM710 Laser Scanning Confocal Microscope (Carl Zeiss, Jena, Germany). The concentration of NO in the culture supernatant was measured by assaying the concentrations of nitrite (a stable NO breakdown product) using the Griess assay (Beyotime, Shanghai, China), according to the manufacturer's instructions. The intracellular NO level was detected using the NO-sensitive fluorescence probe DAF-FM DA (Sigma, St. Louis, Mo., USA) (24). Cells were labeled with DAF-FM DA (10 μM) at 37° C. for 30 min and were gently washed three times with PBS. Fluorescence was detected using a LSM710 Laser Scanning Confocal Microscope (Scale bars, 100 μm) (Carl Zeiss, Jena, Germany).
LPS can promote cell apoptosis through mitochondrial dysfunction, and mitochondria are the major source of ROS.

OVA induced asthma mice [3] = experiment: Combination therapy of ipratropium with R- and S-salbutamol: lung histopathology (Masson, PAS); assay type: in vivo
Protocol: (§2) Left lung tissue was obtained for histopathology and fixed in 10% formalin for 24 h, followed by paraffin-embedded and then were sectioned at 4 μm for routine staining with hematoxylin and eosin (H&E, Solarbio, Beijing, China), or with periodic acid-Schiff (PAS, Solarbio, Beijing, China), or submitted to Masson's trichrome staining (Baso, Zhuhai, China). Images of the stained lung sections were obtained by an Axisplus image-capturing system (Zeiss, Germany) and then a minimum of 3 bronchi (luminal diameter, 150-500 μm) were analyzed per mice for various parameters using an image analyzing computer system (IPP) by pathologists blinded to grouping. Histological score, airway smooth muscle thickness, PAS score (goblet cells hyperplasia), and collagen deposition were evaluated by a semi-quantitative scoring method.
Methods used were similar as mentioned above. Nebulized aerosol of saline, Methacholine 2 mg/ml (low dose) or 10 mg/ml (high dose) were given via inhalation to OVA induced asthma mice.

OVA induced asthma mice [4] = experiment: Combination therapy of ipratropium with RS-, R- and S-salbutamol: airway resistance in response to methacholine; assay type: in vivo
Protocol: OVA sensitized/challenged asthma model Mice were sensitized and challenged with ovalbumin (OVA) or normal saline. […] On days 21, 22 and 23, the mice were challenged with 1% OVA in saline (0.01 g/mL) for 20 min via. a nebulizer (PART Turbo boy). […] In vivo airway responsiveness to methacholine (Mch) was assessed on day 28 in conscious, freely moving, spontaneously breathing mice by a whole-body plethysmography (Buxco Electronics Inc.). […] Before Mch challenge, a 20 μL drug aerosol or saline was given to the mice because of the short-acting bronchodilating effect of terbutaline. The degree of bronchoconstriction was expressed as enhanced pause (Penh), a calculated dimensionless value that correlates with measurement of airway resistance, impedance, and intrapleural pressure. […] Methods used were similar as mentioned above. Nebulized aerosol of saline, Methacholine 2 mg/ml (low dose) or 10 mg/ml (high dose) were given via inhalation to OVA induced asthma mice.

[5] = system: LPS-induced RAW264.7 cells; experiment: NO production (DAF-FM DA probe, Griess assay); assay type: cell-based; settings: LPS-induced cells
Protocol: as §1
In addition, the concentration of NO in the culture supernatant was measured by assaying the concentrations of nitrite (a stable NO breakdown product) using the Griess assay. […] To investigate (R)-salbutamol role on the level of iNOS, the mRNA and protein levels of iNOS were determined.

[6] = system: LPS-induced RAW264.7 cells; experiment: M1/M2 macrophage polarization by flow cytometry; assay type: cell-based; settings: pretreated prior to LPS 100 ng/mL; basal 24.7%, LPS 59.2%; (R)-salbutamol 10 μM
Protocol: as §1
Macrophages M1 (F4/80+/CD11c+/CD206−) and M2 (F4/80+/CD11c−/CD206+) polarization were analyzed using flow cytometry.

[7] = system: LPS-induced macrophage RAW264.7 cells; experiment: M1 macrophage cytokines (TNF-α, IL-1β, MCP-1) by ELISA; assay type: cell-based; settings: LPS challenge
Protocol: as §1
To confirm that M1 polarization was predominant over M2 polarization after stimulation with LPS, the levels of typical M1 macrophage cytokines (i.e., TNF-α, IL-1β and MCP-1) were quantified using ELISA; these cytokines are mainly synthesized by macrophages and play an important role in inflammatory diseases (35,36). This invention disclosed that TNF-α […] from 2.62-fold to 0.75-fold of control levels following LPS stimulation (FIG. 8A). IL-1β is a hallmark of many chronic inflammatory diseases in humans and is reportedly associated with acute phase reactions (35,37). […] We conclude that LPS is likely to lead to M1 polarization but not M2 polarization.

BALB/c mice = experiment: Survival study after LPS challenge (sepsis); assay type: in vivo
Protocol: Treatment were given intraperitoneally for 3 consecutive days. One hour after the 3rd day treatments, LPS (15 mg/kg) was administered intraperitoneally. The animals were monitored. Survival rate was then recorded every 12 h for 144 hours.

[8] = system: OVA-sensitized/OVA-challenged mice; experiment: Whole blood analysis and eosinophils counts in BAL fluid; assay type: in vivo; settings: OVA asthma mice after repeated inhalation
Protocol: (§3) OVA sensitized/challenged asthma model Mice were sensitized and challenged with ovalbumin (OVA) or normal saline. Briefly, mice were sensitized by intraperitoneal (i.p.) injection of 0.2 mL of 2% aluminum hydroxide (ALUM) gel containing 10 μg of OVA antigen on days 0 and 14. On days 21, 22 and 23, the mice were challenged with 1% OVA in saline (0.01 g/mL) for 20 min via. a nebulizer (PART Turbo boy). On day 26, a 20 min nebulized OVA challenge with 5% OVA in saline (0.05 g/mL) was conducted. The control group received 0.2 mL of saline with 2% ALUM administered intraperitoneally on days 0 and 14 before receiving 20 min nebulized normal saline without OVA on days 21, 22, 23 and 26.
After Methacholine challenge, mice were anesthetized, blood was collected for hematology analysis. Part of the collected blood was transferred to a heparinized Eppendorf tube, gently mixed and centrifuged under 845×g at 4° C. for 10 min to isolate plasma specimen for further analysis. Broncho alveolar lavage (BAL) was performed on the right lung using 0.3 mL of phosphate buffered saline (PBS) for four times. The saline was instilled into the lungs and allowed to equilibrate for 30 s before recovery, after centrifugation supernatants were stored at −80° C. for further cytokines analysis while cell pellet was suspended in 0.5 ml PBS and the eosinophils counts were performed using Wright's stain. Then all the organs (liver, right lung lobe, spleen, kidneys, heart, brain) were excised surgically and washed totally with ice-cold PBS to clear the blood and then blotted dry with filter paper. These tissue specimens were then accurately weighted and stored at −80° C. for detecting the drug distribution by LC-MS/MS. White blood cell (WBC) counts and differential WBC counts were analyzed using a ProCyte Dx Hematology Analyzer (IDEXX Laboratories) in 4 h after blood collection.

[9] = system: OVA-sensitized/OVA-challenged mice; experiment: Airway responsiveness to methacholine by whole-body plethysmography (Penh) in OVA sensitized/challenged asthma model; assay type: in vivo
Protocol: as §3
In vivo airway responsiveness to methacholine (Mch) was assessed on day 28 in conscious, freely moving, spontaneously breathing mice by a whole-body plethysmography (Buxco Electronics Inc.). Mice were challenged with aerosolized saline or increasing concentrations of Mch (2, 10, 20 mg/mL) administered by an ultrasonic nebulizer for 2 min. Before Mch challenge, a 20 μL drug aerosol or saline was given to the mice because of the short-acting bronchodilating effect of terbutaline. The degree of bronchoconstriction was expressed as enhanced pause (Penh), a calculated dimensionless value that correlates with measurement of airway resistance, impedance, and intrapleural pressure. Penh values were recorded and averaged for 4 min after each nebulization challenge.

[10] = system: OVA-sensitized/OVA-challenged mice; experiment: Lung histopathology (H&E, PAS, Masson) after R-, S-, rac-terbutaline; assay type: in vivo
Protocol: as §3, §2

p38 MAPK = experiment: Western blot of lung tissue: p38 MAPK phosphorylation; assay type: in vivo, mice; settings: vs OVA group
Protocol: as §3
Total protein from lung tissue was extracted according to the guidelines of manufacturer (Beyotime, China) and the concentrations were determined by BCA assay (Pierce). Primary antibodies against p38 MAPK (CST #8690), p-p38 MAPK (Thr180/Tyr182, CST #4511), NF-κB p65 (GeneTex #GTX102090), p-NF-κB p65 (S536, CST #3033) and GAPDH (Affinity #AF7021) as a standard were purchased and used.

[11] = 0.5 mg/kg + LPS, Saline + LPS 90.9

OCc1cc([C@H](O)CNCCCCCCOCCCCc2ccccc2)ccc1O [(S)-salmeterol, reference compound]
polarized M1 macrophages or M2 macrophages [1]: further increased

CC(C)(C)NC[C@@H](O)c1ccc(O)c(CO)c1 [S-salbutamol, (S)-salbutamol, reference compound]
production/levels of ROS (in words) [2]: increased | PAS staining: goblet cell hyperplasia, mucus over secretion, airway edema (OVA induced asthma mice [3]; vs OVA model): further worsen the inflammatory condition | Masson staining: collagen deposition, wall thickness of bronchiole and vascular vessels (OVA induced asthma mice [3]; vs ova (model) group): further worsens the inflammatory conditions and further increased the wall thickness | increase in airway resistant in response to methacholine (in words) (OVA induced asthma mice [4]): much greater; also recorded: further enhance the airway response to methacholine | increase in airway resistance after treatment (OVA induced asthma mice [4]; response to methacholine, OVA + Saline 445%): 486% | production/levels of NO (in words) [5]: increased | prevalence of M1 macrophages (F4/80+/CD11c+/CD206−) [6]: facilitated macrophage polarization | release and expression of cytokines in LPS induced M1 macrophages (in words) [7]: had the opposite effects | release and expression of cytokines in LPS induced M1 macrophages (in words) ([7]; listed as S-albuterol): increased the release of cytokines | Percent of death after LPS challenges, 12 h (BALB/c mice; 0.5 mg/kg + LPS, Saline + LPS 0): 0% | Percent of death after LPS challenges, 24 h (BALB/c mice; 0.5 mg/kg + LPS, Saline + LPS 36.4): 36.4% | Percent of death after LPS challenges, 36 h (BALB/c mice; 0.5 mg/kg + LPS, Saline + LPS 72.7): 90.9% | Percent of death after LPS challenges, 48 h (BALB/c mice; [11]): 90.9% | Percent of death after LPS challenges, 72 h (BALB/c mice; [11]): 90.9% | Percent of death after LPS challenges, 144 h (BALB/c mice; [11]): 90.9% | rate of mortality/death after LPS challenge (in words) (BALB/c mice; in comparison of LPS challenged group without pretreatment (mortality 90.9%)): same rate of death at 48 hours; also recorded: higher rate of death at 36 h

CC(C)(C)NCC(O)c1cc(O)cc(O)c1 (racemic) [rac-terbutaline, terbutaline]
per cent of eosinophil counts in blood and BALF ([8]; listed as RS(rac)-terbutaline): significantly higher | per cent of eosinophil counts in blood and BALF ([8]; listed as racemic terbutaline): less but similar effects as S-terbutaline | airway bronchoconstriction/hyperactivity (Penh) in response to increased doses of Mch ([9]; Mch 2, 10, 20 mg/mL aerosol, rac-ter at double dose of R-ter): much less effect | baseline Penh value (baseline airway reactivity) ([9]; exposure to saline, after 7 days inhalation pretreatment, OVA group 0.80±0.12, Control group 0.55±0.08, rac-terbutaline at double molar amount): significantly reduce | PAS stain of lung tissues: inflammatory and histopathological changes, collagen deposition ([10]; Example 3, vs model): significant less beneficial effects | degree of inflammatory cell infiltration (H&E, histological score) ([10]; rac-terbutaline at double dose): ameliorated | PAS and Masson staining: subepithelial matrix glycoproteins, goblet cell hyperplasia, collagen deposition ([10]; vs OVA group): much less or not effective | p38 MAPK phosphorylation (ratio of phosphorylated to total p38 MAPK) (p38 MAPK): much less effects
